Where two headings read alike, the source gives them in different places.
Assays:
[1] = tested on: Substance P Induced Plasma Extravasation; test: Antagonism of substance P induced plasma extravasation in guinea-pigs; type: in vivo, guinea-pig; conditions: Cavia porcellus, 1 hour prior to substance P
Summary of the method: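 Female guinea-pigs; compound or solvent given s.c. or p.o. 1 h before substance P (2 mg/kg, femoral artery) plus Evans Blue (30 mg/kg). Blue colouring of nose, forepaws, conjunctiva scored at 10 min; trachea and urinary bladder at 30 min after CO2 sacrifice. Values are lowest active doses in mg/kg.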

[2] = tested on: Substance P Induced Relaxation of the Pig Coronary Arteries; test: Antagonism of substance P induced relaxation of the pig coronary arteries; conditions: test compound concentration 3 × 10^-9 (unit not given), 30 min incubation
Summary of the method: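 Inverted pig coronary artery segments, endothelium outside, in Krebs-Henseleit at 37 °C (95/5 O2/CO2), isometric tension recorded. After prostaglandin F2α (10^-5 M) precontraction, substance P (3×10^-10 M and 10^-9 M cumulative) relaxation repeated after 30 min incubation with test compound.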

[3] = sc, 10 min, s.c., conjunctiva, read-out: lowest active dose (LAD), conjunctiva
[4] = sc, 10 min, s.c., forepaws, read-out: lowest active dose (LAD), forepaws
[5] = sc, 10 min, s.c., nose, read-out: lowest active dose (LAD), nose
[6] = sc, 0.5 h, s.c., trachea, read-out: lowest active dose (LAD), trachea
[7] = sc, 0.5 h, s.c., urinary bladder, read-out: lowest active dose (LAD), urinary bladder
[8] = po, 10 min, p.o., conjunctiva, read-out: lowest active dose (LAD), conjunctiva
[9] = po, 10 min, p.o., forepaws, read-out: lowest active dose (LAD), forepaws
[10] = po, 10 min, p.o., nose, read-out: lowest active dose (LAD), nose
[11] = po, 0.5 h, p.o., trachea, read-out: lowest active dose (LAD), trachea
[12] = po, 0.5 h, p.o., urinary bladder, read-out: lowest active dose (LAD), urinary bladder

O=C(c1cc(C(F)(F)F)cc(C(F)(F)F)c1)N1CC[C@H](N2CCC(=C3c4ccccc4CCn4c3nc(CO)c4CO)CC2)C[C@@H]1Cc1ccccc1 (relative stereo) [Compound 52]
minimal effective dose [1, 3]: 2.5 mg/kg
minimal effective dose [1, 4]: 2.5 mg/kg
minimal effective dose [1, 5]: 2.5 mg/kg
minimal effective dose [1, 6]: 10 mg/kg
minimal effective dose [1, 7]: 2.5 mg/kg
% inhibition of the response to 10^-9 M substance P [2]: 77.8%

Cc1cnc2n1CCc1ccccc1C2=C1CCN([C@H]2CCN(C(=O)c3cc(C(F)(F)F)cc(C(F)(F)F)c3)[C@@H](Cc3ccccc3)C2)CC1 (relative stereo) [Compound 53]
minimal effective dose [1, 3]: 10 mg/kg
minimal effective dose [1, 4]: 10 mg/kg
minimal effective dose [1, 5]: 10 mg/kg
minimal effective dose [1, 6]: 10 mg/kg
minimal effective dose [1, 7]: 10 mg/kg
% inhibition of the response to 10^-9 M substance P [2]: 44.4%

Cc1cnc2n1CCc1ccccc1C2=C1CCN([C@H]2CCN(C(=O)c3cc(C(F)(F)F)cc(C(F)(F)F)c3)[C@H](Cc3ccccc3)C2)CC1 (relative stereo) [Compound 54]
minimal effective dose [1, 3]: 2.5 mg/kg
minimal effective dose [1, 4]: 2.5 mg/kg
minimal effective dose [1, 5]: 2.5 mg/kg
minimal effective dose [1, 6]: 2.5 mg/kg
minimal effective dose [1, 7]: 2.5 mg/kg
% inhibition of the response to 10^-9 M substance P [2]: 69.8%

O=C(c1cc(C(F)(F)F)cc(C(F)(F)F)c1)N1CC[C@H](N2CCC(=C3c4ccccc4CCn4c3nc3ccccc34)CC2)C[C@H]1Cc1ccccc1 (relative stereo) [Compound 72]
minimal effective dose [1, 8]: 10 mg/kg
minimal effective dose [1, 9]: 10 mg/kg
minimal effective dose [1, 10]: 10 mg/kg
minimal effective dose [1, 11]: 10 mg/kg
minimal effective dose [1, 12]: 10 mg/kg
% inhibition of the response to 10^-9 M substance P [2]: 97.4%

O=C1Cn2ccnc2C(=C2CCN([C@H]3CCN(C(=O)c4cc(C(F)(F)F)cc(C(F)(F)F)c4)[C@@H](Cc4ccccc4)C3)CC2)c2ccsc21 (relative stereo) [Compound 106]
minimal effective dose [1, 8]: 10 mg/kg
minimal effective dose [1, 9]: 10 mg/kg
minimal effective dose [1, 10]: 10 mg/kg
minimal effective dose [1, 11]: 10 mg/kg
minimal effective dose [1, 12]: 10 mg/kg
% inhibition of the response to 10^-9 M substance P [2]: 92.3%

O=C1Cn2ccnc2C(=C2CCN([C@@H]3CCN(C(=O)c4cc(C(F)(F)F)cc(C(F)(F)F)c4)[C@@H](Cc4ccccc4)C3)CC2)c2ccsc21 (relative stereo) [Compound 107]
minimal effective dose [1, 8]: 10 mg/kg
minimal effective dose [1, 9]: 10 mg/kg
minimal effective dose [1, 10]: 10 mg/kg
minimal effective dose [1, 11]: 10 mg/kg
minimal effective dose [1, 12]: 10 mg/kg
% inhibition of the response to 10^-9 M substance P [2]: 96.3%

Cc1cc(C)cc(C(=O)N2CC[C@H](N3CCC(=C4c5ccsc5C(=O)Cn5ccnc54)CC3)C[C@@H]2Cc2ccccc2)c1 (relative stereo) [Compound 111]
minimal effective dose [1, 3]: 10 mg/kg
minimal effective dose [1, 4]: 10 mg/kg
minimal effective dose [1, 5]: 10 mg/kg
minimal effective dose [1, 6]: 10 mg/kg
minimal effective dose [1, 7]: 10 mg/kg
% inhibition of the response to 10^-9 M substance P [2]: 22.6%

Cc1cc(C)cc(C(=O)N2CC[C@@H](N3CCC(=C4c5ccsc5C(=O)Cn5ccnc54)CC3)C[C@@H]2Cc2ccccc2)c1 (relative stereo) [Compound 112]
minimal effective dose [1, 3]: 0.63 mg/kg
minimal effective dose [1, 4]: 0.63 mg/kg
minimal effective dose [1, 5]: 0.63 mg/kg
minimal effective dose [1, 6]: 10 mg/kg
minimal effective dose [1, 7]: 2.5 mg/kg
% inhibition of the response to 10^-9 M substance P [2]: 66.7%

O=C(c1cc(C(F)(F)F)cc(C(F)(F)F)c1)N1CC[C@H](N2CCC(=C3c4ccccc4OCn4ccnc43)CC2)C[C@@H]1Cc1ccccc1 (relative stereo) [Compound 113]
minimal effective dose [1, 3]: 10 mg/kg
minimal effective dose [1, 4]: 10 mg/kg
minimal effective dose [1, 5]: 10 mg/kg
minimal effective dose [1, 6]: 10 mg/kg
minimal effective dose [1, 7]: 10 mg/kg
% inhibition of the response to 10^-9 M substance P [2]: 87.9%

O=C(c1cc(C(F)(F)F)cc(C(F)(F)F)c1)N1CC[C@@H](N2CCC(=C3c4ccccc4OCn4ccnc43)CC2)C[C@@H]1Cc1ccccc1 (relative stereo) [Compound 114]
minimal effective dose [1, 3]: 2.5 mg/kg
minimal effective dose [1, 4]: 10 mg/kg
minimal effective dose [1, 5]: 2.5 mg/kg
minimal effective dose [1, 6]: 10 mg/kg
minimal effective dose [1, 7]: 10 mg/kg
% inhibition of the response to 10^-9 M substance P [2]: 100.0%

Cc1cc(C)cc(C(=O)N2CC[C@@H](N3CCC4(CC3)c3ccccc3CCn3ccnc34)C[C@@H]2Cc2ccccc2)c1 (relative stereo) [Compound 120]
minimal effective dose [1, 3]: 2.5 mg/kg
minimal effective dose [1, 4]: 2.5 mg/kg
minimal effective dose [1, 5]: 2.5 mg/kg
minimal effective dose [1, 6]: 10 mg/kg
minimal effective dose [1, 7]: 10 mg/kg
% inhibition of the response to 10^-9 M substance P [2]: 7.7%

O=C(c1cc(C(F)(F)F)cc(C(F)(F)F)c1)N1CC[C@@H](N2CCC(C3c4ccccc4CCn4ccnc43)CC2)C[C@@H]1Cc1ccccc1 (stereo partly drawn) [Compound 8]
minimal effective dose [1, 3]: 10 mg/kg
minimal effective dose [1, 4]: 2.5 mg/kg
minimal effective dose [1, 5]: 2.5 mg/kg
minimal effective dose [1, 6]: 10 mg/kg
minimal effective dose [1, 7]: 10 mg/kg
% inhibition of the response to 10^-9 M substance P [2]: 82.3%

Cc1cc(C)cc(C(=O)N2CC[C@@H](N3CCC(C4c5ccccc5CCn5ccnc54)CC3)C[C@H]2Cc2ccccc2)c1 (stereo partly drawn) [Compound 26]
minimal effective dose [1, 3]: 10 mg/kg
minimal effective dose [1, 4]: 10 mg/kg
minimal effective dose [1, 5]: 10 mg/kg
minimal effective dose [1, 6]: 10 mg/kg
minimal effective dose [1, 7]: 10 mg/kg
% inhibition of the response to 10^-9 M substance P [2]: 25.6%

Cc1cc(C)cc(C(=O)N2CC[C@@H](N3CCC(C4c5ccccc5CCn5ccnc54)CC3)C[C@@H]2Cc2ccccc2)c1 (stereo partly drawn) [Compound 27]
minimal effective dose [1, 3]: 2.5 mg/kg
minimal effective dose [1, 4]: 2.5 mg/kg
minimal effective dose [1, 5]: 2.5 mg/kg
minimal effective dose [1, 6]: 10 mg/kg
minimal effective dose [1, 7]: 2.5 mg/kg
% inhibition of the response to 10^-9 M substance P [2]: 5.1%

Cc1cc(C)cc(C(=O)N2CCC(N3CCC(C4c5ccccc5Cn5ccnc54)CC3)CC2Cc2ccccc2)c1 (stereo not drawn) [Compound 108]
minimal effective dose [1, 3]: 10 mg/kg
minimal effective dose [1, 4]: 10 mg/kg
minimal effective dose [1, 5]: 10 mg/kg
minimal effective dose [1, 6]: 10 mg/kg
minimal effective dose [1, 7]: 10 mg/kg
% inhibition of the response to 10^-9 M substance P [2]: 2.6%
